These are literature values, as cited in paper PMC9694544, “Conteltinib (CT-707) in patients with advanced ALK-positive non-small cell lung cancer: a multicenter, open-label, first-in-human phase 1 study” (BMC Medicine, 2022).

Like-named read-outs stand apart in the source and are kept apart here.

Data set [1] concerns patients with ALK-positive NSCLC. Conditions: cited from earlier work.
The next data set relates to ALK-positive NSCLC. The note with it: cited from earlier work.
Where [2] appears, read: ALK TKI-naïve patients, at RP2D.
[3] abbreviates: patients who received crizotinib previously, at RP2D.
The mark [4] stands for this setting: patients who received crizotinib previously, at MTD.
The mark [5] stands for this setting: ALK TKI-naïve patients, at the dose around RP2D.
The mark [6] stands for this setting: patients who received crizotinib previously, at the dose around RP2D.
[7] abbreviates: patients who received crizotinib previously, at the dose-expansion phase.

Turning to `COc1cc(N2CCC(N3CCN(C)CC3)CC2)ccc1Nc1ncc(Cl)c(Nc2ccccc2P(C)(C)=O)n1` [brigatinib], the “incidence of grade ≥ 3 TRAEs” value in data set [1] is listed as 36%. Also, the values for the ORR in the data set on ALK-positive NSCLC (setting [2]) and in the data set on ALK-positive NSCLC (setting [3]) were 100% and 72%, respectively. The “median PFS” value in the data set with ALK-positive NSCLC (setting [2]) is on record as 30.8 months; in the data set on ALK-positive NSCLC (setting [3]), 12.9 months.
Turning to `Cc1cc(Nc2ncc(Cl)c(Nc3ccccc3S(=O)(=O)C(C)C)n2)c(OC(C)C)cc1C1CCNCC1` [ceritinib], in data set [1], the “incidence of grade ≥ 3 TRAEs” value is listed as 49% and the rash was 13%. In addition, in the data set with ALK-positive NSCLC (ALK TKI-naïve patients, at MTD), the ORR is reported as 59% and the “median PFS” value was 18.4 months. Besides, in the data set with ALK-positive NSCLC (setting [4]), the ORR was 56% and the “median PFS” value is recorded as 6.9 months.
On to `C[C@@H]1CN(C(=O)c2ccc(NC(=O)c3cc(O[C@H](C)c4c(Cl)ccc(F)c4Cl)c(N)nn3)cc2)C[C@H](C)N1` [ensartinib], for which the “incidence of grade ≥ 3 TRAEs” value in data set [1] is on record as 23%. The rash in data set [1] is recorded as 56%; in data set [1] (grade ≥ 3), 12%. The figures for the ORR with ALK-positive NSCLC (setting [5]) and with ALK-positive NSCLC (setting [6]) were 80.0% and 69.0%, respectively. In addition, the “median PFS” value with ALK-positive NSCLC (setting [5]) is on record as 26.2 months; in the data set on ALK-positive NSCLC (setting [6]), 9.0 months.
Regarding `COc1cc(N2CCC3(CCN(C)CC3)CC2)ccc1Nc1ncc(Cl)c(Nc2ccccc2P(C)(C)=O)n1` [iruplinalkib], in data set [1], the “incidence of grade ≥ 3 TRAEs” value is on record as 35% and the rash is 13%. In addition, in the data set on ALK-positive NSCLC (ALK TKI-naïve patients, at the dose-expansion phase), the ORR was 76.3%. In addition, in the data set with ALK-positive NSCLC (setting [7]), the ORR was 45.7% and the “median PFS” value was 6.9 months.
